In patent US20250360143A1, “COMPOSITIONS AND METHODS FOR PHA[…] OF STROKE AND […] REPERFUSION INJURY” (priority 2022, published 2025):
“Also recorded” adds a separate entry of the source. Structures can show the parent of a compound that is named as a salt. Where two headings read alike, the source gives them in different places.

Experiments:
[1] = tested on: 45 receptors, channels and transporters; test: Off-target binding at 45 receptors, channels and transporters (NIMH PDSP); details: at 10 μM
[2] = molecular target: T1, mP2X4R (Mus musculus, UniProt Q9JJX6); details: compared with hP2X4R; cited from earlier work
T1 sequence (Q9JJX6 1-388): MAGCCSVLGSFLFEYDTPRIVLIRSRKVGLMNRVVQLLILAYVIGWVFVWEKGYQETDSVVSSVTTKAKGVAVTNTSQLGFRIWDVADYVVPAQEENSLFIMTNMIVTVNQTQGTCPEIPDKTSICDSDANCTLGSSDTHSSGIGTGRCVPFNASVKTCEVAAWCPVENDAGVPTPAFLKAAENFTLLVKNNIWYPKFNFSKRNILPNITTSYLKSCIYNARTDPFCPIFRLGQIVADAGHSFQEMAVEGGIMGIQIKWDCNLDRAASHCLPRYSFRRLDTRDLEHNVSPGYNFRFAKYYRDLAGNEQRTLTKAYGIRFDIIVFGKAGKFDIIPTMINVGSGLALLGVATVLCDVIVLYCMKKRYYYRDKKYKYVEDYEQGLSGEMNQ

[3] = tested on: mouse; details: cited from earlier work
[4] = tested on: C57B/6 mice, transient focal cerebral ischemia (MCAo); details: mouse, in vivo
[5] = molecular target: T2, D3 dopamine receptor (Homo sapiens, UniProt P35462); test: Off-target binding, NIMH Psychoactive Drug Screening program; details: read-out: inhibition of binding at D3 dopamine receptor
T2 construct: NIMH Psychoactive Drug Screening program

[6] = molecular target: T3, H2 histamine receptor (Homo sapiens, UniProt P25021); test: as above; details: read-out: inhibition of binding at H2 histamine receptor
T3 construct: NIMH Psychoactive Drug Screening program

[7] = tested on: mice, LAD ligation ischemia/reperfusion; test: Myocardial ischemia/reperfusion (LAD ligation), echocardiography; assay type: in vivo, mouse; details: 2 mg/kg/day s.c. minipump 3 days at reperfusion after 60 min LAD occlusion, 2 weeks or 4 weeks post-I/R, vs vehicle
[8] = tested on: middle-aged mice after MCAo; details: dose 3 mg/kg; four weeks after MCAo; vs Veh; listed as MRS 4719, 3 mg/kg
[9] = tested on: C57B/6 mice, transient focal cerebral ischemia (MCAo); details: 1 mg/kg/day for 3 days from onset of acute stroke; previously shown; cited from earlier work
[10] = molecular target: T4, hP2X1R (Homo sapiens, UniProt P51575); test: cell-based; details: CHO-K1; percent inhibition at 30 μM; agonist α,β-MeATP 1.0 μM; read-out: hP2X1R % inhib.
T4 construct: expressed in transfected cells; host or cells: CHO-K1
T4 sequence (P51575 1-399): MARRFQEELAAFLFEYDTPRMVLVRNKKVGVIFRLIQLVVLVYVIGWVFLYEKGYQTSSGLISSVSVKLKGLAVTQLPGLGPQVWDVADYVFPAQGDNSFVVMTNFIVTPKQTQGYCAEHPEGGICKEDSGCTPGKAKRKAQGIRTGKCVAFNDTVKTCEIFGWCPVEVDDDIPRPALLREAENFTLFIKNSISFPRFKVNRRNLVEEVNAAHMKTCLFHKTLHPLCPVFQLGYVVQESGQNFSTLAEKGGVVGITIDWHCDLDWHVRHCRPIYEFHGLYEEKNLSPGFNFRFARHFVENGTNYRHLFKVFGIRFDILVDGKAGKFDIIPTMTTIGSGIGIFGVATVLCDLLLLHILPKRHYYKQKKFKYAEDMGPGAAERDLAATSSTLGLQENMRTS

[11] = molecular target: T5, hP2X2/3R (Homo sapiens, UniProt P56373+Q9UBL9); test: cell-based; assay type: cell-based; details: CHO-K1; percent inhibition at 30 μM; agonist α,β-MeATP 5.0 μM; read-out: hP2X2/3R % inhib.
T5 construct: expressed in transfected cells; host or cells: CHO-K1
T5 sequence (Q9UBL9 1-471): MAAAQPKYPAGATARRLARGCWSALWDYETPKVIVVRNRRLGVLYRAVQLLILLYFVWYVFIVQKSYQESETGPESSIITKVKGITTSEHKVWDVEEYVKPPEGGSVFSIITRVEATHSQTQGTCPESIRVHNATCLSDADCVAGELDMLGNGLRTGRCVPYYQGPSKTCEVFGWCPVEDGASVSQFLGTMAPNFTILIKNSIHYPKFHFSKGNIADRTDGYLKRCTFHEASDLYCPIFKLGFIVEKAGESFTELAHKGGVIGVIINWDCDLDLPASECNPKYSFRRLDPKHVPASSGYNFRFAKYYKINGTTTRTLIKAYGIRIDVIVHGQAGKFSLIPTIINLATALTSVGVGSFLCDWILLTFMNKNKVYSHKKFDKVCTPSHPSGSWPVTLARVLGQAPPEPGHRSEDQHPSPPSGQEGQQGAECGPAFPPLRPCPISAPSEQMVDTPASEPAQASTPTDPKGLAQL
T5 sequence (P56373 1-397): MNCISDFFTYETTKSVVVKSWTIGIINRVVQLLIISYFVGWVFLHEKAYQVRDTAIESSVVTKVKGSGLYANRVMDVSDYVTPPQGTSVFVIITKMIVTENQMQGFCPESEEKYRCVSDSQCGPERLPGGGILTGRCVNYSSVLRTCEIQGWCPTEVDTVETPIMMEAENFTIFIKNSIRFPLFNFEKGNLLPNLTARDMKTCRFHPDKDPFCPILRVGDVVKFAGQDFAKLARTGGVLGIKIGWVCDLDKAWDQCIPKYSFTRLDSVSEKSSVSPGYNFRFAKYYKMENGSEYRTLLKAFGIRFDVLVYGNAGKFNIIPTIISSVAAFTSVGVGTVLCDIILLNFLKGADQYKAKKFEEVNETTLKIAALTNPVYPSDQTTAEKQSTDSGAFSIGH

[12] = molecular target: T6, hP2X3R (Homo sapiens, UniProt P56373); test: cell-based; assay type: cell-based; details: CHO-K1; percent inhibition at 30 μM; agonist α,β-MeATP 1.0 μM; read-out: hP2X3R % inhib.
T6 construct: expressed in transfected cells; host or cells: CHO-K1
T6 sequence (P56373 1-397): T5 sequence (P56373 1-397)

[13] = molecular target: T7, hP2X4R (Homo sapiens, UniProt Q99571); test: cell-based; assay type: cell-based
T7 construct: expressed in transfected cells; host or cells: HEK-293
T7 sequence (Q99571 1-388): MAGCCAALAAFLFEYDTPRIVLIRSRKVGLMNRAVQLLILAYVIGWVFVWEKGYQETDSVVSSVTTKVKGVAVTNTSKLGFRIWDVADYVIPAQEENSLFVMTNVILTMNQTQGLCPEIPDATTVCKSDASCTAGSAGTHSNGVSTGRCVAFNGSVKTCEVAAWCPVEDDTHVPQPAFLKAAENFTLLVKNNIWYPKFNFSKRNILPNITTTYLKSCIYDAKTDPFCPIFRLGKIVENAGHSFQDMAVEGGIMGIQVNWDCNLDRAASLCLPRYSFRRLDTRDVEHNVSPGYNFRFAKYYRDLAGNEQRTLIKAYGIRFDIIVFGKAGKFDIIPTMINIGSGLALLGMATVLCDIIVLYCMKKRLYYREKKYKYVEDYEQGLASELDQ

T3 sequence (P25021 whole entry): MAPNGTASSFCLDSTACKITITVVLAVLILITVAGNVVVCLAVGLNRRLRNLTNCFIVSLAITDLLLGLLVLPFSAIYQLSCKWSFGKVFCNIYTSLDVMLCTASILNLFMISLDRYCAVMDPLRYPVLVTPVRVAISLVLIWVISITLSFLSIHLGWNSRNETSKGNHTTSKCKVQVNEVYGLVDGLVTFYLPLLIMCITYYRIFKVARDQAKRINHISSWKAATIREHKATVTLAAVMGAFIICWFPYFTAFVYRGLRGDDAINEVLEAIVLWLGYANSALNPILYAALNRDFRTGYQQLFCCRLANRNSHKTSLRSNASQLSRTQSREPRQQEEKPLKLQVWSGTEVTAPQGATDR
T2 sequence (P35462 whole entry): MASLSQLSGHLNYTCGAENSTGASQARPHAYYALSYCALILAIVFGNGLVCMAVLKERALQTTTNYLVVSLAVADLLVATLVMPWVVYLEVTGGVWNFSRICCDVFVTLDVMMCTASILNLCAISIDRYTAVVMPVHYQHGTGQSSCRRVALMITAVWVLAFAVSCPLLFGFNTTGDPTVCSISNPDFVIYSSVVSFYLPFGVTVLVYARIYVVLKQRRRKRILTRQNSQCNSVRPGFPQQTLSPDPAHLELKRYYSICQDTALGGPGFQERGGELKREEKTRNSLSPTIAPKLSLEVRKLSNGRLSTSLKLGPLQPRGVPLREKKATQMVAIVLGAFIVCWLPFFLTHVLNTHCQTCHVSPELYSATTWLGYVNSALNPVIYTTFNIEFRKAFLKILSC

Question: Which “off-target interactions at 45 receptors, channels and transporters” value [1] does the source give for `O=C1CC(=O)N(c2cccc(-c3noc(=S)[nH]3)c2)c2ccc3ccccc3c2N1.[Na]` [Compound 22a, 5-(3-(5-Thioxo-4,5-dihydro-1,2,4-oxadiazol-3-yl)phenyl)-1,5-dihydro-2H-naphtho[1,2-b][1,4]diazepine-2,4(3H)-dione sodium salt] here?
Answer: no significant interactions

Question: What about the “potency in blocking mP2X4R effects in vitro” value [2] of the same molecule?
Answer: as potent in blocking mP2X4R effects in vitro as at hP2X4R

Question: What about the “in vivo efficacy in the mouse” value [3] of the same molecule?
Answer: considerable in vivo efficacy

Question: What does the source list for `Cc1ccc2c3c(ccc2c1)N(c1cccc(-c2noc(=S)[nH]2)c1)C(=O)CC(=O)N3` [Compound 21c, 9-Methyl-5-(3-(5-thioxo-4,5-dihydro-1,2,4-oxadiazol-3-yl)phenyl)-1,5-dihydro-2H-naphtho[1,2-b][1,4]diazepine-2,4(3H)-dione]?
Answer: off-target interactions at 45 receptors, channels and transporters [1]: no significant interactions; cortical infarct volume alone ([4]; 5 mg/kg/day): not statistically significant; striatal infarct volume alone ([4]; 5 mg/kg/day): not statistically significant; total hemispheric infarct volume ([4]; 5 mg/kg/day): moderate but significant decrease; also recorded: reduced total hemispheric infarct volume

Question: With `O=C1CC(=O)N(c2cccc(-c3noc(=S)[nH]3)c2)c2cc(Br)c3ccccc3c2N1` [Compound 21d, 7-Bromo-5-(3-(5-thioxo-4,5-dihydro-1,2,4-oxadiazol-3-yl)phenyl)-1,5-dihydro-2H-naphtho[1,2-b][1,4]diazepine-2,4(3H)-dione triethylamine salt] as the molecule, how does the “off-target interactions at 45 receptors, channels and transporters” value [1] read?
Answer: no significant interactions

Question: Which inhibition at 10 µM [5] does the source give for `O=C1CC(=O)N(c2ccnc(-c3noc(=S)[nH]3)c2)c2ccc3ccccc3c2N1` [Compound 21u, 5-(2-(5-Thioxo-4,5-dihydro-1,2,4-oxadiazol-3-yl)pyridin-4-yl)-1,5-dihydro-2H-naphtho[1,2-b][1,4]diazepine-2,4(3H)-dione triethylamine salt] here?
Answer: 74 ± 10%

Question: What about the inhibition at 10 µM [6] of the same molecule?
Answer: 89 ± 4%

Question: What about the cortical infarct volume [4] of the same molecule?
Answer: significantly reduced

Question: What about the striatal infarct volume [4] of the same molecule?
Answer: no statistically significant decrease

Question: And the “total hemispheric infarct volume” value [4]?
Answer: significantly reduced

Question: And the “neuroprotection based on total hemispheric infarct volume size” value ([4]; 3 mg/kg)?
Answer: significant neuroprotection

Question: And the “decline in fractional shortening (FS)” value ([7]; listed as MRS 4719)?
Answer: less than those in vehicle-treated mice

Question: And the “decline in left ventricular ejection fraction (EF)” value ([7]; listed as MRS 4719)?
Answer: less than those in vehicle-treated mice

Question: And the “decline in fractional shortening (FS)” value ([7]; listed as MRS4719)?
Answer: lesser degree of decline

Question: What about the “decline in left ventricular ejection fraction (EF)” value ([7]; listed as MRS4719) of the same molecule?
Answer: lesser degree of decline

Question: What about the “learning and memory, NORT” value [8] of the same molecule?
Answer: significant retention of memory; also recorded: reached to statistical significance

Question: With `O=C1CN=C(c2cccc(Br)c2)c2oc3ccccc3c2N1` [Compound 5-BDBD, 5-(3-bromophenyl)-1,3-dihydro-2H-benzofuro[3,2-e]-1,4-diazepin-2-one] as the molecule, how does the stroke infarct size [9] read?
Answer: reduced stroke infarct size

Question: With `O=C1CC(=O)N(c2cc(-c3noc(=S)[nH]3)ccn2)c2ccc3ccccc3c2N1` [Compound 21s, 5-(4-(5-Thioxo-4,5-dihydro-1,2,4-oxadiazol-3-yl)pyridin-2-yl)-1,5-dihydro-2H-naphtho[1,2-b][1,4]diazepine-2,4(3H)-dione triethylamine salt] as the molecule, how does the inhibition at 30 µM [10] read?
Answer: 18%

Question: What about the inhibition at 30 µM [11] of the same molecule?
Answer: -6%

Question: What about the inhibition at 30 µM [12] of the same molecule?
Answer: 18%

Question: What about the “hP2X4R inhibitory activity relative to 22a, in words” value [13] of the same molecule?
Answer: reduce

Question: What about the IC50 ([13]; agonist CTP 10 μM (~EC80)) of the same molecule?
Answer: 13.5 µM
